Values of other authors in publication PMC2984425, “Safety and pharmacokinetics of novel selective vascular endothelial growth factor receptor-2 inhibitor YN968D1 in patients with advanced malignancies” (BMC Cancer, 2010).

Key:
[1] = test system: advanced refractory solid tumors; details: pooled analysis of 137 patients from 4 phase I trials; cited from earlier work
renal cell carcinoma = test system: renal cell carcinoma; parameters: method as in PMID 17215529; details: first-line treatment for renal cell carcinoma; cited from earlier work
colorectal cancer = test system: colorectal cancer; parameters: method as in PMID 17947727; details: 84 patients with colorectal cancer, monotherapy; cited from earlier work
[2] = test system: metastatic gastric cancer; parameters: method as in ref 16 = [16]; Moehler M Hartmann JT Lordick F Al-Batran S Reimer P Trarbach T Ebert M Daum S Weihrauch M Galle PR AIO Upper GI Group Sunitinib in patients with chemo-refractory metastatic gastric cancer: Preliminar; details: of 52 patients, chemo-refractory metastatic gastric cancer; cited from earlier work

Row | SMILES | PR, % of patients [1] [%] | evaluable patients who achieved PR [1] | patients who had SD [1] | patients with signs of disease progression by radiological imaging [1] [%] | progression-free survival (PFS) (renal cell carcinoma) [months] | response rate (renal cell carcinoma) [%] | patients who achieved PR (colorectal cancer) | patients with stable disease (colorectal cancer) | patients who showed tumor control [2]
1 | CNC(=O)c1cc(Oc2ccc(NC(=O)Nc3ccc(Cl)c(C(F)(F)F)c3)cc2)ccn1 [sorafenib] | 1.4 | 2 | 38 | 70.8 |  |  |  |  | 
2 | CCN(CC)CCNC(=O)c1c(C)[nH]c(/C=C2\C(=O)Nc3ccc(F)cc32)c1C [sunitinib] |  |  |  |  | 11 | 31 | 1 | 13 | 5
